ChEMBL document CHEMBL4251615, “Discovery of anilino-furo[2,3-d]pyrimidine derivatives as dual inhibitors of EGFR/HER2 tyrosine kinase and their anticancer activity” (Eur J Med Chem, 2018)

What was measured:
[1] = test system: SF-539; experiment: Growth inhibition of human SF539 cells assessed as cell growth at 10 uM incubated for 48 hrs by sulforhodamine B assay relative to control; type: functional; details: SF-539, 48 h, read-out: Activity
[2] = test system: T47D; experiment: Growth inhibition of human T47D cells assessed as cell growth at 10 uM incubated for 48 hrs by sulforhodamine B assay relative to control; type: functional; details: read-out: Activity
[3] = test system: NCI-H322M; experiment: Growth inhibition of human NCI-H322M cells assessed as cell growth at 10 uM incubated for 48 hrs by sulforhodamine B assay relative to control; type: functional; details: read-out: Activity
[4] = test system: OVCAR-4; experiment: Growth inhibition of human OVCAR4 cells assessed as cell growth at 10 uM incubated for 48 hrs by sulforhodamine B assay relative to control; type: functional; details: OVCAR-4, 48 h, read-out: Activity
[5] = test system: NCI/ADR-RES; experiment: Growth inhibition of human NCI/ADR-RES cells assessed as cell growth at 10 uM incubated for 48 hrs by sulforhodamine B assay relative to control; type: functional; details: read-out: Activity
[6] = test system: PC-3; experiment: Growth inhibition of human PC3 cells assessed as cell growth at 10 uM incubated for 48 hrs by sulforhodamine B assay relative to control; type: functional; details: PC-3, 48 h, read-out: Activity
[7] = test system: SN12C; experiment: Growth inhibition of human SN12C cells assessed as cell growth at 10 uM incubated for 48 hrs by sulforhodamine B assay relative to control; type: functional; details: read-out: Activity
[8] = test system: HOP-92; experiment: Growth inhibition of human HOP92 cells assessed as cell growth at 10 uM incubated for 48 hrs by sulforhodamine B assay relative to control; type: functional; details: HOP-92, 48 h, read-out: Activity
[9] = test system: OVCAR-8; experiment: Growth inhibition of human OVCAR8 cells assessed as cell growth at 10 uM incubated for 48 hrs by sulforhodamine B assay relative to control; type: functional; details: OVCAR-8, 48 h, read-out: Activity
[10] = test system: UO-31; experiment: Growth inhibition of human UO31 cells assessed as cell growth at 10 uM incubated for 48 hrs by sulforhodamine B assay relative to control; type: functional; details: UO-31, 48 h, read-out: Activity
[11] = test system: Malme-3M; experiment: Growth inhibition of human MALME-3M cells assessed as cell growth at 10 uM incubated for 48 hrs by sulforhodamine B assay relative to control; type: functional; details: read-out: Activity
[12] = test system: HL-60(TB); experiment: Growth inhibition of human HL-60(TB) cells assessed as cell growth at 10 uM incubated for 48 hrs by sulforhodamine B assay relative to control; type: functional; details: HL-60, 48 h, read-out: Activity
[13] = test system: SNB-19; experiment: Growth inhibition of human SNB19 cells assessed as cell growth at 10 uM incubated for 48 hrs by sulforhodamine B assay relative to control; type: functional; details: SNB-19, 48 h, read-out: Activity
[14] = test system: UACC-62; experiment: Growth inhibition of human UACC62 cells assessed as cell growth at 10 uM incubated for 48 hrs by sulforhodamine B assay relative to control; type: functional; details: UACC-62, 48 h, read-out: Activity
[15] = test system: MDA-MB-468; experiment: Growth inhibition of human MDA-MB-468 cells assessed as cell growth at 10 uM incubated for 48 hrs by sulforhodamine B assay relative to control; type: functional; details: MDA-MB-468, 48 h, read-out: Activity
[16] = test system: M14; experiment: Growth inhibition of human M14 cells assessed as cell growth at 10 uM incubated for 48 hrs by sulforhodamine B assay relative to control; type: functional; details: M14, 48 h, read-out: Activity
[17] = test system: SR; experiment: Growth inhibition of human SR cells assessed as cell growth at 10 uM incubated for 48 hrs by sulforhodamine B assay relative to control; type: functional; details: read-out: Activity
[18] = test system: LOX IMVI; experiment: Growth inhibition of human LOXIMVI cells assessed as cell growth at 10 uM incubated for 48 hrs by sulforhodamine B assay relative to control; type: functional; details: read-out: Activity
[19] = test system: HCT-116; experiment: Growth inhibition of human HCT116 cells assessed as cell growth at 10 uM incubated for 48 hrs by sulforhodamine B assay relative to control; type: functional; details: HCT-116, 48 h, read-out: Activity
[20] = test system: MDA-MB-435; experiment: Growth inhibition of human MDA-MB-435 cells assessed as cell growth at 10 uM incubated for 48 hrs by sulforhodamine B assay relative to control; type: functional; details: MDA-MB-435, 48 h, read-out: Activity
[21] = molecular target: Receptor tyrosine-protein kinase erbB-2 (Homo sapiens) (UniProt P04626); experiment: Inhibition of recombinant human N-terminal GST-tagged HER2 (679 to 1255 residues) expressed in baculovirus infected Sf9 cells at 10 uM using poly[Glu:Tyr] (4:1) as substrate after 40 mins by Kinase-Glo plus luminescence assay relative to control
Sequence of Receptor tyrosine-protein kinase erbB-2 (Homo sapiens) (P04626 whole entry, the tested form may be a part): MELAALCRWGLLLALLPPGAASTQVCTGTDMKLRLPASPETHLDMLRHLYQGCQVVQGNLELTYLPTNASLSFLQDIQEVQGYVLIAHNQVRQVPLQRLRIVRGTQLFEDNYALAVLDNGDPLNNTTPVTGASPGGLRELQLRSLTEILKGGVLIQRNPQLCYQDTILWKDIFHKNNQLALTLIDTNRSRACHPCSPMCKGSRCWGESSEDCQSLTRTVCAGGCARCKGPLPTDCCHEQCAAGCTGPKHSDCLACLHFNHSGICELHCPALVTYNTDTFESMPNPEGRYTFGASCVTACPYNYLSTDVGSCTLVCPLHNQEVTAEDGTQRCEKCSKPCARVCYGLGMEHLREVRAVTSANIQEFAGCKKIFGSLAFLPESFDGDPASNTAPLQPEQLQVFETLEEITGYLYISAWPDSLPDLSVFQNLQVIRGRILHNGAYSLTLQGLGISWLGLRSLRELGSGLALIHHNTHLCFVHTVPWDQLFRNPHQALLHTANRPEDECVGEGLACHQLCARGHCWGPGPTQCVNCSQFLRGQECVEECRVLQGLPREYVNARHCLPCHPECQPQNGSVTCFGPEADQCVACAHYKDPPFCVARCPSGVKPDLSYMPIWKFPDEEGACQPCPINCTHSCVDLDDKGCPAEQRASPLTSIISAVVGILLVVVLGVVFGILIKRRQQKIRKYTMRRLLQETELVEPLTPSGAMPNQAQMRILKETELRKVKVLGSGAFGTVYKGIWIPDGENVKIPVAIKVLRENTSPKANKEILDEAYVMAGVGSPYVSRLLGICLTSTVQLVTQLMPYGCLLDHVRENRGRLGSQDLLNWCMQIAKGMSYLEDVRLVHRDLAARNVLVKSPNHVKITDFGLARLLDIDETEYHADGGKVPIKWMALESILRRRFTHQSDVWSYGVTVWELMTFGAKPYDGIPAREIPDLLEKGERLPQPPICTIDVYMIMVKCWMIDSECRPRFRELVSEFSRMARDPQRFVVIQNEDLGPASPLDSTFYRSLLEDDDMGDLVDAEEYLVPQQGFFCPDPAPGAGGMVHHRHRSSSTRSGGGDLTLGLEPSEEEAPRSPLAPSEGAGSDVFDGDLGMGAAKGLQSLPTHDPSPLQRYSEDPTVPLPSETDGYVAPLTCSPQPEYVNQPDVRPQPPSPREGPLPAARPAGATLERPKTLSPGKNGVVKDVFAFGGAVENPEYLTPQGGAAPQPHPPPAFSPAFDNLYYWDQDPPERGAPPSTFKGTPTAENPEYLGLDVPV

[22] = test system: HCT-15; experiment: Growth inhibition of human HCT15 cells assessed as cell growth at 10 uM incubated for 48 hrs by sulforhodamine B assay relative to control; type: functional; details: HCT-15, 48 h, read-out: Activity
[23] = test system: OVCAR-3; experiment: Growth inhibition of human OVCAR3 cells assessed as cell growth at 10 uM incubated for 48 hrs by sulforhodamine B assay relative to control; type: functional; details: OVCAR-3, 48 h, read-out: Activity
[24] = test system: SK-MEL-2; experiment: Growth inhibition of human SK-MEL-2 cells assessed as cell growth at 10 uM incubated for 48 hrs by sulforhodamine B assay relative to control; type: functional; details: SK-MEL-2, 48 h, read-out: Activity
[25] = test system: ACHN; experiment: Growth inhibition of human ACHN cells assessed as cell growth at 10 uM incubated for 48 hrs by sulforhodamine B assay relative to control; type: functional; details: read-out: Activity
[26] = test system: NCI-H522; experiment: Growth inhibition of human NCI-H522 cells assessed as cell growth at 10 uM incubated for 48 hrs by sulforhodamine B assay relative to control; type: functional; details: NCI-H522, 48 h, read-out: Activity
[27] = test system: SW-620; experiment: Growth inhibition of human SW620 cells assessed as cell growth at 10 uM incubated for 48 hrs by sulforhodamine B assay relative to control; type: functional; details: SW-620, 48 h, read-out: Activity
[28] = test system: MOLT-4; experiment: Growth inhibition of human MOLT4 cells assessed as cell growth at 10 uM incubated for 48 hrs by sulforhodamine B assay relative to control; type: functional; details: MOLT-4, 48 h, read-out: Activity

Compound | growth at 10 µM [1] [%] | growth at 10 µM [2] [%] | growth at 10 µM [3] [%] | growth at 10 µM [4] [%] | growth at 10 µM [5] [%] | growth at 10 µM [6] [%] | growth at 10 µM [7] [%] | growth at 10 µM [8] [%] | growth at 10 µM [9] [%] | growth at 10 µM [10] [%] | growth at 10 µM [11] [%] | growth at 10 µM [12] [%] | growth at 10 µM [13] [%] | growth at 10 µM [14] [%] | growth at 10 µM [15] [%] | growth at 10 µM [16] [%] | growth at 10 µM [17] [%] | growth at 10 µM [18] [%] | growth at 10 µM [19] [%] | growth at 10 µM [20] [%] | other results
CCOC(=O)c1c(C)oc2ncnc(Nc3ccc(OCc4cccc(C)c4)cc3)c12 | 95.4 | 87.3 | 94 | 105 | 97 | 93.4 | 88.6 | 104 | 106 | 101 | 126 | 108 | 99.7 | 80.7 | 106 | 86.5 | 116 | 91.8 | 90.6 | 104 | inhibition [21]: 16%; growth at 10 µM [22]: 99.5%; growth at 10 µM [23]: 117%; growth at 10 µM [24]: 100%; growth at 10 µM [25]: 98.1%; growth at 10 µM [26]: 81%; growth at 10 µM [27]: 101%; growth at 10 µM [28]: 115%
Cc1oc2ncnc(Nc3ccccc3)c2c1C(=O)NCCO | 88.6 | 99.4 | 108 | 103 | 102 | 107 | 93.2 | 88.6 | 113 | 87.7 | 107 | 64.9 | 93.9 | 86.2 | 109 | 106 | 52.2 | 95.4 | 99.3 | 102 | growth at 10 µM [22]: 98%; growth at 10 µM [23]: 102%; growth at 10 µM [24]: 113%; growth at 10 µM [25]: 91.8%; growth at 10 µM [26]: 96.6%; growth at 10 µM [27]: 95.1%; growth at 10 µM [28]: -0.28%
CCOC(=O)c1c(C)oc2ncnc(Nc3cccc(F)c3)c12 | 99.4 | 92.7 | 106 | 108 | 96.1 | 94.7 | 89.1 | 88.3 | 105 | 101 | 131 | 76.4 | 93.7 | 84 | 96.5 | 98.2 | 78.6 | 105 | 88.1 | 101 | growth at 10 µM [22]: 95.3%; growth at 10 µM [23]: 108%; growth at 10 µM [24]: 92.9%; growth at 10 µM [25]: 109%; growth at 10 µM [26]: 94.3%; growth at 10 µM [27]: 94.2%; growth at 10 µM [28]: 62.5%
Cc1oc2ncnc(Nc3cccc(F)c3)c2c1C(=O)O | 92.5 | 95.6 | 109 | 101 | 105 | 108 | 89.7 | 89.3 | 112 | 92.7 | 107 | 35.2 | 94.6 | 90.2 | 104 | 112 | 104 | 98 | 103 | 104 | growth at 10 µM [22]: 101%; growth at 10 µM [23]: 102%; growth at 10 µM [24]: 107%; growth at 10 µM [25]: 100%; growth at 10 µM [26]: 93.9%; growth at 10 µM [27]: 101%; growth at 10 µM [28]: 102%
Cc1cccc(Nc2ncnc3oc(C)c(C(=O)NCCO)c23)c1 | 92.5 | 84.3 | 95 | 95 | 92.4 | 96.1 | 97.1 | 94.1 | 104 | 86.2 | 109 | 84.6 | 103 | 83.1 | 87 | 103 | 90.8 | 93 | 93 | 97.2 | growth at 10 µM [22]: 93.7%; growth at 10 µM [23]: 108%; growth at 10 µM [24]: 113%; growth at 10 µM [25]: 94.8%; growth at 10 µM [26]: 91.8%; growth at 10 µM [27]: 96%; growth at 10 µM [28]: 57.4%
